Measurements published in US6420131B1, “Use of fluorescein aryl ethers in high throughput cytochrome P450 inhibition assays” (Gentest Corporation, priority 1999, dated 2002).
Values belong to the molecule of their own block, whether it stands above or below them.

Tests used:
Conditions in all cases: substrate uM: Ia 2, AMMC 20, CEC 40, MFC 50, BFC 50, BQ 40, BzRes 50; 30 min; enzyme 50 nM
Rat CYP2C13 = target: T1, Rat CYP2C13 (Rattus norvegicus, UniProt P20814); test: Turnover of fluorometric substrates by rat CYP2C13
T1 sequence (P20814 1-490): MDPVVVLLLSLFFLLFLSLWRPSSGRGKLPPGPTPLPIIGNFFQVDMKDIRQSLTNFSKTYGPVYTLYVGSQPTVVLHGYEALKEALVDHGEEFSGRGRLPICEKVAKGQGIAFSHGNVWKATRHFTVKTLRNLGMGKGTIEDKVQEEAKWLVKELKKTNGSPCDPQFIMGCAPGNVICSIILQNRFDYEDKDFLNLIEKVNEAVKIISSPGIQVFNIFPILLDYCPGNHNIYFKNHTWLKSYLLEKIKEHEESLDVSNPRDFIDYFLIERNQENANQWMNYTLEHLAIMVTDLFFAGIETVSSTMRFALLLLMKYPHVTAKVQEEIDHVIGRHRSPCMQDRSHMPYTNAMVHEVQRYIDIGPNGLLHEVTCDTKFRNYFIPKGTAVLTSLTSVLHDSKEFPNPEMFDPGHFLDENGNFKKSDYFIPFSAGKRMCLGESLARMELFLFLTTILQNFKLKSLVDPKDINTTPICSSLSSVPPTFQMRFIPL

Rat CYP2B1 = target: T2, Rat CYP2B1 (Rattus norvegicus, UniProt P00176); test: Turnover of fluorometric substrates by rat CYP2B1
T2 sequence (P00176 1-491): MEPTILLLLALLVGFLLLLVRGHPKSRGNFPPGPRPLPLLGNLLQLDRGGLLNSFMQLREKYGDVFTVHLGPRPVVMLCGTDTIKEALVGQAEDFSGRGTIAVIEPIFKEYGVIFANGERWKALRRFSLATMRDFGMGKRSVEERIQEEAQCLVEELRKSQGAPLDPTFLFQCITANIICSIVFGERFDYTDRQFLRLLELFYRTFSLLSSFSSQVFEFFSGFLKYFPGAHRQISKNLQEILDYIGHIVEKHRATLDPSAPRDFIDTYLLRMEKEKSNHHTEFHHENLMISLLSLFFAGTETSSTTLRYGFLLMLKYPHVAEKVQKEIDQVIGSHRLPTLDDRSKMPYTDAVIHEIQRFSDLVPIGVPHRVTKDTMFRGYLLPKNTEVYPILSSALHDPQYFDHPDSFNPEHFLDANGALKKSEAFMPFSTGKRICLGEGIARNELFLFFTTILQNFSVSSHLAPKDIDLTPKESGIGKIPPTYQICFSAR

Rat CYP2A2 = Rat CYP2A2 (Rattus norvegicus, UniProt P15149); test: Turnover of fluorometric substrates by rat CYP2A2
Rat CYP2D2 = target: T3, Rat CYP2D2 (Rattus norvegicus, UniProt P10634); test: Turnover of fluorometric substrates by rat CYP2D2
T3 sequence (P10634 1-500): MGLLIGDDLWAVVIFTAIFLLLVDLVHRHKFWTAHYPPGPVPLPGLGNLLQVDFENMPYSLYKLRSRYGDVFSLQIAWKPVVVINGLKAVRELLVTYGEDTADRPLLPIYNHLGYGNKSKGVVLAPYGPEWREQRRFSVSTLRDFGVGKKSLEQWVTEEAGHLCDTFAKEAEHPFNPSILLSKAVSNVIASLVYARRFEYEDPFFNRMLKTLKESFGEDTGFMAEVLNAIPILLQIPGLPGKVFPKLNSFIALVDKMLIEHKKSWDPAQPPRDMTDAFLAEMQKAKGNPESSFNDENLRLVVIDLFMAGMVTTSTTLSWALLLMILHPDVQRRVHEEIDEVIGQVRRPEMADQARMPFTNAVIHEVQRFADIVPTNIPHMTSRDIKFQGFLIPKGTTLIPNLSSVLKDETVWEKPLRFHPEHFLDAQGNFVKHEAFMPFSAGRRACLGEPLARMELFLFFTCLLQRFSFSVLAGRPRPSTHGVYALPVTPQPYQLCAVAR

Rat CYP2C11 = target: T4, Rat CYP2C11 (Rattus norvegicus, UniProt P08683); test: Turnover of fluorometric substrates by rat CYP2C11
T4 sequence (P08683 1-500): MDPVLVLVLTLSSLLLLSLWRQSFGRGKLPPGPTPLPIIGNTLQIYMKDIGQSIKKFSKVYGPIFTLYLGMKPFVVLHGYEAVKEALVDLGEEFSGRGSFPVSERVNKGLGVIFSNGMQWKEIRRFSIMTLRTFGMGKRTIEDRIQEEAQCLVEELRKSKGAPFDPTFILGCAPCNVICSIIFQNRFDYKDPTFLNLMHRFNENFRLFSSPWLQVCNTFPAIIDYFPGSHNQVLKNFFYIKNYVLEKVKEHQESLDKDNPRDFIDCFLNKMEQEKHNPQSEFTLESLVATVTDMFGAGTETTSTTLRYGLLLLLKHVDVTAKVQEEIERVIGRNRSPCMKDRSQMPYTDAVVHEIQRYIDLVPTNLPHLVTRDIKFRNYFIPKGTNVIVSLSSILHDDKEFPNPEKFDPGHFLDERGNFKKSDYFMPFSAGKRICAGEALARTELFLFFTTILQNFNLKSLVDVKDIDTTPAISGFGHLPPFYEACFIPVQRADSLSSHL

Rat CYP3A2 = target: T5, Rat CYP3A2 (Rattus norvegicus, UniProt P05183); test: Turnover of fluorometric substrates by rat CYP3A2
T5 sequence (P05183 1-504): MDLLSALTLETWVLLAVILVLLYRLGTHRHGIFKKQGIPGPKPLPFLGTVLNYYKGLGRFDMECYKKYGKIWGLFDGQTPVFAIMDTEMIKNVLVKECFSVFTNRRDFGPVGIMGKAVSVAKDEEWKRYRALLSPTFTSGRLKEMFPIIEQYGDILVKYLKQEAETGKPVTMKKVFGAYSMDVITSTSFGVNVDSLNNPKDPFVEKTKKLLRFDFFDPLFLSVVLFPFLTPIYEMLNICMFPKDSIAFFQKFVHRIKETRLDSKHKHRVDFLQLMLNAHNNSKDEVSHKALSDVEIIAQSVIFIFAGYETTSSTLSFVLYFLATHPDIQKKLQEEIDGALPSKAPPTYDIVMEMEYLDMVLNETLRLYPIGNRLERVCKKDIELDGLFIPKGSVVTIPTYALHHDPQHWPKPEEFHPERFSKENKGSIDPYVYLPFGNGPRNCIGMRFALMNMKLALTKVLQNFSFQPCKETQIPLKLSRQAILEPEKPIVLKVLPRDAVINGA

Rat CYP2A2, sequence (P15149 whole entry): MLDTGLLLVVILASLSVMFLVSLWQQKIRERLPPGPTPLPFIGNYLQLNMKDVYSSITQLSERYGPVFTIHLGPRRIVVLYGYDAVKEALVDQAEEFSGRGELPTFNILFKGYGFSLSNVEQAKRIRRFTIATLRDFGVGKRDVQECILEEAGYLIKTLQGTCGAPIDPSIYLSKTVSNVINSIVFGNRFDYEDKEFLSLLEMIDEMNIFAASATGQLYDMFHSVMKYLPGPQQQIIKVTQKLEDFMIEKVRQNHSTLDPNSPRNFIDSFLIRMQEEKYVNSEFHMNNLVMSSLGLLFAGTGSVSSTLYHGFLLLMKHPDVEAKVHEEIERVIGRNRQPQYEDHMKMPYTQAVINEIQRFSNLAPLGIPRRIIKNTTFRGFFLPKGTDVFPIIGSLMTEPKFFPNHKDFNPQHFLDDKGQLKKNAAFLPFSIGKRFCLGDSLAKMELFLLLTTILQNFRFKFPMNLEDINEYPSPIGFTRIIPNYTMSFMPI

Turnover Numbers, CYP2C13 (Rat CYP2C13): 0.74 pmol product/min/pmol enzyme
Turnover Numbers, CYP2B1 (Rat CYP2B1): 3.70 pmol product/min/pmol enzyme
Turnover Numbers, CYP2A2 (Rat CYP2A2): 0.26 pmol product/min/pmol enzyme
Turnover Numbers, CYP2D2 (Rat CYP2D2): 0.12 pmol product/min/pmol enzyme
Turnover Numbers, CYP2C11 (Rat CYP2C11): 0.34 pmol product/min/pmol enzyme
Turnover Numbers, CYP3A2 (Rat CYP3A2): 1.04 pmol product/min/pmol enzyme
Compound: O=c1cc(C(F)(F)F)c2ccc(OCc3ccccc3)cc2o1 [BFC, 7-Benzyloxy-4-trifluoromethylcoumarin]

Turnover Numbers, CYP2B1 (Rat CYP2B1): 2.5 pmol product/min/pmol enzyme
Turnover Numbers, CYP2A2 (Rat CYP2A2): 2.8 pmol product/min/pmol enzyme
Turnover Numbers, CYP2D2 (Rat CYP2D2): 4.4 pmol product/min/pmol enzyme
Turnover Numbers, CYP3A2 (Rat CYP3A2): 9.8 pmol product/min/pmol enzyme
Compound: c1ccc(COc2ccc3cccnc3c2)cc1 [BQ, 7-Benzyloxyquinoline]

Second part, the molecule before the results:

Compound: O=c1ccc2nc3ccc(OCc4ccccc4)cc3oc-2c1 [BzRes, 7-benzyloxyresorufin]
Turnover Numbers, CYP2C13 (Rat CYP2C13): 0.01 pmol product/min/pmol enzyme
Turnover Numbers, CYP2B1 (Rat CYP2B1): 0.82 pmol product/min/pmol enzyme
Turnover Numbers, CYP2C11 (Rat CYP2C11): 0.05 pmol product/min/pmol enzyme
Turnover Numbers, CYP3A2 (Rat CYP3A2): 0.09 pmol product/min/pmol enzyme

Compound: CCOc1ccc2cc(C#N)c(=O)oc2c1 [CEC, 7-Ethoxy-3-cyanocoumarin]
Turnover Numbers, CYP2B1 (Rat CYP2B1): 0.45 pmol product/min/pmol enzyme
Turnover Numbers, CYP2A2 (Rat CYP2A2): 0.04 pmol product/min/pmol enzyme
Turnover Numbers, CYP2C11 (Rat CYP2C11): 0.55 pmol product/min/pmol enzyme
Turnover Numbers, CYP3A2 (Rat CYP3A2): 0.15 pmol product/min/pmol enzyme

Compound: O=C(OCc1ccccc1)c1ccccc1-c1c2ccc(=O)cc-2oc2cc(OCc3ccccc3)ccc12 [Compound Ia, O-Benzylfluorescein Benzyl Ester]
Turnover Numbers, CYP2C13 (Rat CYP2C13): 0.003 pmol product/min/pmol enzyme
Turnover Numbers, CYP2A2 (Rat CYP2A2): 0.030 pmol product/min/pmol enzyme
Turnover Numbers, CYP2D2 (Rat CYP2D2): 0.194 pmol product/min/pmol enzyme
Turnover Numbers, CYP2C11 (Rat CYP2C11): 0.065 pmol product/min/pmol enzyme
Turnover Numbers, CYP3A2 (Rat CYP3A2): 0.015 pmol product/min/pmol enzyme

Compound: COc1ccc2c(C(F)(F)F)cc(=O)oc2c1 [MFC, 7-Methoxy-4-trifluoromethylcoumarin]
Turnover Numbers, CYP2C13 (Rat CYP2C13): 0.21 pmol product/min/pmol enzyme
Turnover Numbers, CYP2B1 (Rat CYP2B1): 2.82 pmol product/min/pmol enzyme
Turnover Numbers, CYP2A2 (Rat CYP2A2): 0.08 pmol product/min/pmol enzyme
Turnover Numbers, CYP2D2 (Rat CYP2D2): 0.08 pmol product/min/pmol enzyme
Turnover Numbers, CYP2C11 (Rat CYP2C11): 5.57 pmol product/min/pmol enzyme
